From patent US7745645B2, “Sulfonamide derivatives of xanthene compounds” (Pierce Biotechnology, Inc., priority 2007, dated 2010)

System: A549 cells
Assay: High Content Screening measurement of p53 induction
Format: cell-based
Details: 5 μM camptothecin, 18-20 hours
Method: Any of the above described compounds are conjugated to antibodies and used for HCS measurement of p53 induction. A549 cells are seeded at 5,000 cells/well on 96 well microplates one day before treating them with different concentrations of camptothecin. In the presence of the drug, cells are incubated for 18-20 hours at 37° C., 5% CO2 in a humidified incubator. Cells are then fixed with 4% paraformaldehyde, permeabilized with 0.1% Triton X-100, and then labeled with rabbit p53 primary antibody and goat-anti-rabbit-conjugate of one of the above-described compounds. Cell nuclei are labeled with Hoechst 33342. The samples are imaged and quantitatively analyzed on an ArrayScan® HCS Reader (Cellomics, Inc. Pittsburgh Pa.). […] Camptothecin treated cells show bright p53 labeling in the nuclei.

For `CC[C@@]1(O)C(=O)OCc2c1cc1n(c2=O)Cc2cc3ccccc3nc2-1` [camptothecin], the “p53 induction (fluorescence images)” value was “p53 induction in the nucleus”.
